Read-outs that look alike come from different tables or passages of the source.

Experimental findings from publication PMC10698726 (Molecular Pharmaceutics, 2023) are described below.

One series deals with T1, OCT2 (Homo sapiens, UniProt O15244).
T1 sequence (O15244 1-555): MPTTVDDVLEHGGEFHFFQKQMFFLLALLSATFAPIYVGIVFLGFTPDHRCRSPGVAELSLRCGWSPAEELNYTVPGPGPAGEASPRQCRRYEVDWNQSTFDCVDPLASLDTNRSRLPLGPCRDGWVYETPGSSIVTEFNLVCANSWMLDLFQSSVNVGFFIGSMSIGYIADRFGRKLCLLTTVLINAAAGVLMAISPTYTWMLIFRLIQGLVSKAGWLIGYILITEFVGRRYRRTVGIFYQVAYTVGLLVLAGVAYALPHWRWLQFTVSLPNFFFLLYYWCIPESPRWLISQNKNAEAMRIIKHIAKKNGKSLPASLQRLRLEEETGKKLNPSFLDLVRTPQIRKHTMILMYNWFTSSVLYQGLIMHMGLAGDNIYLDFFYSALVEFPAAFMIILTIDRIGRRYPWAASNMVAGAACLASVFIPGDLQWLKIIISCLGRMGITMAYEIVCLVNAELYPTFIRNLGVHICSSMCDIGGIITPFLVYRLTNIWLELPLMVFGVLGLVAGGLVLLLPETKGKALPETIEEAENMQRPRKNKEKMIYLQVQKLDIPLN
Description: Inhibition of model substrate uptake in OCT2-overexpressing HEK293 cells. The note with it: for IC50: IC50, OCT2, Table S5, 2 μM ASP+ as model substrate; for selectivity ratio at 5 min / inhibition at 5 min, 20 μM: human, OCT2-overexpressing HEK293 cells; for selectivity ratio at 5 min: pH 7.4.

The target of a further series is T2, OCT1 (Homo sapiens, UniProt O15245).
T2 sequence (O15245 1-554): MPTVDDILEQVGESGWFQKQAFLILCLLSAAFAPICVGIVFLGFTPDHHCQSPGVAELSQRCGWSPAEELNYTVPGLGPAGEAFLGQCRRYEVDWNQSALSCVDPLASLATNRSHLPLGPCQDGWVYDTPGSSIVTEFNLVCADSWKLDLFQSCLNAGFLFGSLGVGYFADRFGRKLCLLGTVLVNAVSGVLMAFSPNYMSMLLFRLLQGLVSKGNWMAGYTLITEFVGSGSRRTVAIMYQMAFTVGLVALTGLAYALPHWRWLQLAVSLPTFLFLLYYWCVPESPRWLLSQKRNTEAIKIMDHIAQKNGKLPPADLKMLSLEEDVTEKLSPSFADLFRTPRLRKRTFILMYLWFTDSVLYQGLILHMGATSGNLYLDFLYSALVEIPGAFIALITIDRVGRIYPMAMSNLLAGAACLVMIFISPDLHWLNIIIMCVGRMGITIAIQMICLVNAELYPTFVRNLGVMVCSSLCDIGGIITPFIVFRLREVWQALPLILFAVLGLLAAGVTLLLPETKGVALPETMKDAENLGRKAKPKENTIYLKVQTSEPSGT
Description: Inhibition of model substrate uptake in OCT1-overexpressing HEK293 cells. Conditions: for IC50: 2 μM ASP+ or ethambutol as model substrate; for IC50 / inhibition at 5 min, 20 μM: 5 min; for inhibition at 5 min, 20 μM / selectivity ratio at 5 min: human, OCT1-overexpressing HEK293 cells; for inhibition at 5 min, 20 μM: OCT1, 20 μM inhibitor; for selectivity ratio at 5 min: pH 7.4, ratio of the IC50 values of both isomers, label = isomer named in the cell (as a rule the one with the higher IC50), read-out: Stereoselectivity (x-fold for the named isomer). It counts as cell-based. On the set-up: expressed in transfected cells; host or cells: HEK293. Here is the method: Koepsell and Gorbulev (University of Würzburg, Germany).
Fluorescence quantification was performed in technical duplicates.

Setting [1] is: pH 7.4, probe ASP+ (2 μM), ASP+ inhibition [%], OCT2, 20 μM inhibitor, 2 μM ASP+, 5 min.
Setting [2] is: pH 7.4, probe (S,S)-ethambutol (2 μM), (S,S)-Ethambutol inhibition [%], 2 μM (S,S)-ethambutol.
[3] abbreviates: pH 7.4, probe ASP+ (2 μM), 2 μM ASP+, mean of three experiments, read-out: ASP+ inhibition [%].
Where [4] appears, read: pH 7.4, probe sumatriptan (2 μM), 2 μM sumatriptan, read-out: Sumatriptan inhibition [%].
[5] abbreviates: pH 7.4, probe (S,S)-ethambutol (2 μM), (S,S)-Ethambutol inhibition [%], OCT2, 20 μM inhibitor, 2 μM (S,S)-ethambutol, 5 min.
Setting [6] is: pH 7.4, probe N-ethyllidocaine (2 μM), N-Ethyllidocaine inhibition [%], OCT2, 20 μM inhibitor, 2 μM N-ethyllidocaine, 5 min.

Consider `CCN(CC)CC#CCOC(=O)[C@](O)(c1ccccc1)C1CCCCC1` [(R)-Oxybutynine], for which the IC50 against OCT2 (5 min) was 31.8 µM; on OCT1 (IC50, OCT1, Table S5), 171 µM. Also, the “(S,S)-Ethambutol inhibition [%]” value on OCT2 (OCT2, 20 μM inhibitor, 2 μM (S,S)-ethambutol, 5 min) turned out to be 7.4%. In addition, on OCT2 (OCT2, 20 μM inhibitor, 2 μM N-ethyllidocaine, 5 min), the “N-Ethyllidocaine inhibition [%]” value was determined as 28.2%. The selectivity ratio at 5 min was found to be 1.6 at OCT2 and 1.2 on OCT1 (OCT1, Table S5). In addition, the inhibition at 5 min, 20 μM turned out to be 86.1% against OCT2 (setting [1]), 93.7% at OCT1 (setting [2]), 49.1% on OCT1 (setting [3]) and 73% at OCT1 (setting [4]).
In the case of `CCCN[C@H]1CCc2nc(N)sc2C1` [(S)-Pramipexole], the concentration for half-maximal inhibition (IC50) came out at 82.4 µM against OCT2 (5 min) and 32.2 µM on OCT1 (OCT1, Table S5, read-out: IC50). Also, the selectivity ratio at 5 min at OCT2 worked out at 4; at OCT1 (OCT1, Table S5), 1.6. Besides, the inhibition at 5 min, 20 μM came to 15.8% against OCT2 (setting [5]); 16.4% against OCT2 (setting [1]); 19.6% against OCT2 (setting [6]); 34.9% against OCT1 (setting [2]); 12.1% at OCT1 (setting [3]); 35.6% at OCT1 (setting [4]).
For `CN(C)CCc1c[nH]c2ccc(C[C@H]3COC(=O)N3)cc12` [(S)-Zolmitriptan], the inhibition at 5 min, 20 μM at OCT2 (setting [5]) was 13.3%; against OCT2 (setting [1]), 17.2%; on OCT2 (setting [6]), 7.3%; at OCT1 (setting [2]) it was 26.9%; on OCT1 (setting [3]) it was 10%; on OCT1 (setting [4]) it was 44.5%.

In general, IC50 refers to the concentration needed to halve the response being measured. The term inhibition denotes the drop in the measured response relative to a control, in per cent.
